We go through one molecule from US8501237B2, “Formulations of water insoluble or poorly water soluble drugs in lipidated glycosaminoglycan particles and their use for diagnostics and therapy” (Tel-Aviv University Future Technology Development L.P., priority 2004, dated 2013).

One may read the IC50 as the concentration at which inhibition is half-maximal.

Like-named read-outs stand apart in the source and are kept apart here.

One data set concerns B16F10.9 cells. The data set can be described thus: Cytotoxicity in vitro (MTT or SRB), B16F10.9. The format is cell-based, mouse. Here is the method:
(§1) Cytotoxicity of paclitaxel and of gagomer-encapsulated paclitaxel was evaluated over a matrix of drug-gagomer formulations (see Examples 1, 2 and 3), cell lines and treatment protocols, for the drug concentration range spanning from 1 nM to 100 μM.
(§2) Twenty four hours prior to an experiment, cells of the desired line were seeded onto 96-well multiwell culture plates at densities in the range of 5×10^3 cells/well. The experiments were initiated on sub-confluent monolayers. Two protocols were used:
(§3) (I) Short protocol. The cells were incubated with the treatment media for 4 hours, at the end of which the treatment media was aspirated, the cells washed and incubated for 44 hours in drug-free serum-supplemented cell growth media. Termination was 48 hours from start.
(§4) (II) Long protocol: the cells were incubated in the treatment media for 48 hours. Upon termination, in either protocol, cell viability was determined in each well using either the MTT or the SRB assay method.
(§5) The rationale for the two protocols, the long and the short, is as follows: The long protocol is the traditional one used for in vitro comparisons of cytotoxicity among different drug formulations. The cells are incubated with the treatment formulations for periods usually within the 24-72 hour time span, and all formulations are incubated for the same time. […]

The subject of another data set is D122 cells. The data set can be described thus: Cytotoxicity in vitro (MTT or SRB), D122. It counts as cell-based. The note with it: Mus musculus. As to the method:
as §1, §2, §3, §4, §5

The next data set deals with C-26 cells. The data set can be described thus: Cytotoxicity in vitro (MTT or SRB), C-26. The format is cell-based. The note with it: Mus musculus. As to the method:
as §1, §2, §3, §4, §5

Another data set relates to PANC-1 cells. The data set can be described thus: Cytotoxicity in vitro (MTT or SRB), PANC-1. It counts as cell-based. The note with it: Homo sapiens. Here is the method: as §1, §2, §3, §4, §5
The next data set deals with SNU-251 cells. The data set can be described thus: Cytotoxicity in vitro (MTT or SRB), SNU-251. The format is cell-based. The conditions noted are these: Homo sapiens. As to the method: as §1, §2, §3, §4, §5
The next data set relates to B16F10.9 cultures. The data set can be described thus: Cytotoxicity before and after sterilization (autoclaving) in B16F10.9 cultures. The format is cell-based. The note with it: Mus musculus. Here is the method:
Aqueous suspensions of TX-GAG particles were prepared according to the scheme of FIG. 7, up to and including step 5. Aqueous suspensions of paclitaxel alone (i.e., free paclitaxel) were also prepared. Samples were set aside, from both the TX-GAG and the free paclitaxel, and the remainder of each system was subjected to the following sterilization process: 12 minutes of autoclaving at 120° C. A critical question of whether this sterilization process is feasible for the TX-GAG formulations, is retention of drug activity. Therefore, the original samples set aside prior to the sterilization process, as well as the samples that underwent the process, were tested for their cytotoxicity, in B16F10.9 cultures, as described in Example 7.

Where [1] appears, read: 4 hours treatment, then 44 hours drug-free media, read-out: IC50 short protocol.
Setting [2] is: 48 hours incubation with treatment media, read-out: IC50 long protocol.

`CC(=O)O[C@H]1C(=O)[C@@]2(C)[C@H]([C@H](OC(=O)c3ccccc3)[C@]3(O)C[C@H](OC(=O)[C@H](O)[C@@H](NC(=O)c4ccccc4)c4ccccc4)C(C)=C1C3(C)C)[C@]1(OC(C)=O)CO[C@@H]1C[C@@H]2O` [Free Paclitaxel, paclitaxel]: the IC50 with B16F10.9 cells (Mus musculus, B16F10.9, ethanol as the lipid solvent, 4 hours treatment, then 44 hours drug-free media (Table 6), read-out: IC50 short protocol) is 1800 nM; in the data set with D122 cells (setting [1]), 900 nM; in the data set on D122 cells (setting [2]), 250 nM; in the data set with C-26 cells (C26, 4 hours treatment, then 44 hours drug-free media, read-out: IC50 short protocol) it was 3000 nM; in the data set on C-26 cells (C26, 48 hours incubation with treatment media, read-out: IC50 long protocol), 3500 nM; in the data set with PANC-1 cells (setting [1]) it was 300 nM. In addition, the IC50 with PANC-1 cells (setting [2]) was 20 nM; in the data set with SNU-251 cells (setting [1]), 600 nM; in the data set on SNU-251 cells (setting [2]), 250 nM; in the data set on B16F10.9 cultures (after sterilization: 12 minutes of autoclaving at 120° C. (FIG. 10)), roughly 300 nM; with B16F10.9 cultures (before sterilization (FIG. 10)), roughly 300 nM. In the data set on B16F10.9 cells (ethanolic paclitaxel solutions heated at 40-70° C., same cytotoxicity assay), the “cytotoxic activity after heating of ethanolic solutions” value was “did not impair the drug's cytotoxic activity”.
